One assay addresses ROCK 2 (Rho kinase 2) (Homo sapiens, UniProt O75116). The assay can be described thus: In vitro inhibitory activity assay (ADP-Glo), Rho kinase 2. It counts as biochemical. The settings on record: Ki by Cheng-Prusoff from IC50; 10 μM ATP, 25° C. How it is done:
(§1) In Vitro Inhibitory Activity Assay Description
(§2) The effectiveness of compounds of the present invention to inhibit Rho kinase activity can be determined in a 10 μl assay containing 40 mM Tris pH7.5, 20 mM MgCl2 0.1 mg/ml BSA, 50 μM DTT and 2.5 μM peptide substrate (Myelin Basic Protein) using an ADP-Glo kit (Promega). Compounds were dissolved in DMSO such that the final concentration of DMSO was 1% in the assay. All reactions/incubations are performed at 25° C. Compound (2 μl) and either Rho kinase 1 or 2 (4 μl) were mixed and incubated for 30 mins. Reactions were initiated by addition of ATP (4 μl) such that the final concentration of ATP in the assay was 10 μM. After a 1 hour incubation 10 μl of ADP-Glo Reagent was added and after a further 45 minute incubation 20 μl of Kinase Detection Buffer was added and the mixture incubated for a further 30 minutes. The luminescent signal was measured on a luminometer. […] Compounds were tested in dose-response format and the inhibition of kinase activity was calculated at each concentration of compound. To determine the IC50 (concentration of compound required to inhibit 50% of the enzyme activity) data were fit to a plot of % inhibition vs Log10 compound concentration using a sigmoidal fit with a variable slope and fixing the maximum to 100% and the minimum to 0%. To determine the Ki values the Cheng-Prusoff equation was utilized (Ki=IC50/(1+[S]/Km).

The next assay has as its target ROCK 1 (Rho kinase 1) (Homo sapiens, UniProt Q13464). The assay can be described thus: In vitro inhibitory activity assay (ADP-Glo), Rho kinase 1. In kind it is biochemical. The settings on record: Ki by Cheng-Prusoff from IC50; 10 μM ATP, 25° C. How it is done: as §1, §2
On the technique in general: In ADP-Glo the light output rises with the ADP produced.

Chain of ROCK 2 (Rho kinase 2) (O75116 whole entry): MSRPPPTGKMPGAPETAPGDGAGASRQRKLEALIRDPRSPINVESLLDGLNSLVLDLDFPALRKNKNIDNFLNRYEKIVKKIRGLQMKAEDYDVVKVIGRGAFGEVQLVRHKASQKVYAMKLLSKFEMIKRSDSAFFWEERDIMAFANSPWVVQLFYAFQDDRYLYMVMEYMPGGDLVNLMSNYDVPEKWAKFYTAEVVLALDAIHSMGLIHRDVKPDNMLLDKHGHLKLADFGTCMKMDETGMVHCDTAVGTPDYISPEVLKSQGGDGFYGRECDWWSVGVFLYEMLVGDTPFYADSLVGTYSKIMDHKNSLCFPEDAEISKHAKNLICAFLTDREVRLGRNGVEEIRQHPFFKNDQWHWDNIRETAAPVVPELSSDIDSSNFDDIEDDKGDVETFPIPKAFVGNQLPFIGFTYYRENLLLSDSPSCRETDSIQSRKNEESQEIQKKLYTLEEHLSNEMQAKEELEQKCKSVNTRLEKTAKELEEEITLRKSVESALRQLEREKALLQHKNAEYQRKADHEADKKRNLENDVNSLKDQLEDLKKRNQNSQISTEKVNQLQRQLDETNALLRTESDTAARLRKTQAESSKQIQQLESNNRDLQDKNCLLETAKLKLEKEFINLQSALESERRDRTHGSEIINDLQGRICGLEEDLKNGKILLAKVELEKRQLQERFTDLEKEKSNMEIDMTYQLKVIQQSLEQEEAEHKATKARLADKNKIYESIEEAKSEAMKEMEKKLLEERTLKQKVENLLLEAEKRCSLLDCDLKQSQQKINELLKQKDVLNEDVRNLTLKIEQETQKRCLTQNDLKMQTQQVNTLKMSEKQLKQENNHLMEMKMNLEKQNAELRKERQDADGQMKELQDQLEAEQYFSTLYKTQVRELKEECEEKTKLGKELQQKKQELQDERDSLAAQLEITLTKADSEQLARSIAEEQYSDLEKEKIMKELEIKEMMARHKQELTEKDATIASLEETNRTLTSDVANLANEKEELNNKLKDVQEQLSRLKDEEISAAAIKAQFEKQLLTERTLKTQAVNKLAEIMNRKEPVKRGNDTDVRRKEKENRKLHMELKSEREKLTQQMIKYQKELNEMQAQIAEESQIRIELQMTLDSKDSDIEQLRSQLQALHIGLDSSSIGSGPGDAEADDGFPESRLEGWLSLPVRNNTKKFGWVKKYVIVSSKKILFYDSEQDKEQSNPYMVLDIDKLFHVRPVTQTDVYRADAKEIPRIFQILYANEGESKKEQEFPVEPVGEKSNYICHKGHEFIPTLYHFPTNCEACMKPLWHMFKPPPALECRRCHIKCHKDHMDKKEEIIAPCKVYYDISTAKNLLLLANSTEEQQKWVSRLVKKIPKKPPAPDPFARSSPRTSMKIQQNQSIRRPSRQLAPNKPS
Chain of ROCK 1 (Rho kinase 1) (Q13464 whole entry): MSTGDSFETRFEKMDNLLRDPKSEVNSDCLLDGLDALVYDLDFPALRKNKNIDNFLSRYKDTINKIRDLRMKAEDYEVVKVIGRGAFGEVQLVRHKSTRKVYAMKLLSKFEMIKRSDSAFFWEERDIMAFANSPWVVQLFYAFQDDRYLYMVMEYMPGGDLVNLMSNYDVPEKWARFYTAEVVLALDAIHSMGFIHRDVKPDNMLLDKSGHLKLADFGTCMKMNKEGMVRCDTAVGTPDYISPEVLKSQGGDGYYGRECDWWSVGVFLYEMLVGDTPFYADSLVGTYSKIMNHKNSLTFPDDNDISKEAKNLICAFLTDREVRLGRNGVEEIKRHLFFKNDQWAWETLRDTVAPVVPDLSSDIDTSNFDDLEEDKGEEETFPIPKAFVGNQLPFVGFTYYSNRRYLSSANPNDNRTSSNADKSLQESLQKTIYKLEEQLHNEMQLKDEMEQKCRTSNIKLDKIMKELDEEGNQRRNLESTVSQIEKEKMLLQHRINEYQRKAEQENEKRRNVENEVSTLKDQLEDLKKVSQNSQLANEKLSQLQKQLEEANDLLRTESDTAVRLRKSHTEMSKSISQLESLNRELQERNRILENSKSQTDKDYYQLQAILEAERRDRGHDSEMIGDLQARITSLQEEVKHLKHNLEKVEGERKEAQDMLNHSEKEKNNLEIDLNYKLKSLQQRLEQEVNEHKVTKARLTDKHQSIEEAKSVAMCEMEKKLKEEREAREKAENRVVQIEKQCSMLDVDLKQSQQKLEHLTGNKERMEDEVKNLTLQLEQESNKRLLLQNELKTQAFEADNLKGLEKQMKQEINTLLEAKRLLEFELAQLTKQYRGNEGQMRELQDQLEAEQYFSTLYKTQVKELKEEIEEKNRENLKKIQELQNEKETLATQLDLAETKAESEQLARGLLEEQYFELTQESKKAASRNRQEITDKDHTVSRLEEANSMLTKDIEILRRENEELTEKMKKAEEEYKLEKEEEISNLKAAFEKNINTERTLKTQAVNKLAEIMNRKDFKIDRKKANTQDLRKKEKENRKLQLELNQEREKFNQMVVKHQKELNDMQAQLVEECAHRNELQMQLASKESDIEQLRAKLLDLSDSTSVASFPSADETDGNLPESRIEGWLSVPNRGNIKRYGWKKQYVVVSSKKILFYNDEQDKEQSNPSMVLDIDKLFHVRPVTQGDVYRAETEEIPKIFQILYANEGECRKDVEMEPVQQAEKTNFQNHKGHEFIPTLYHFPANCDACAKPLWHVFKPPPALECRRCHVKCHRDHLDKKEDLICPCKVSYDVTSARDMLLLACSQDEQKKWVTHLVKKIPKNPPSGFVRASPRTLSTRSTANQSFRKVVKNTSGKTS

As for `Cc1c[nH]c2nccc(Oc3ccc(C[C@H](N)C(=O)NC4CCN(C)CC4(C)C)cc3F)c12` (single isomer, unassigned) [Example 8a], the Ki at ROCK 2 (Rho kinase 2) and at ROCK 1 (Rho kinase 1) was less than 3 nM each time.
Take `Cc1c[nH]c2nccc(Oc3ccc(C[C@H](N)C(=O)NC4CCN(C)CC4(C)C)cc3F)c12` (single isomer, unassigned) [Example 8b]: the inhibition constant Ki on ROCK 2 (Rho kinase 2) and on ROCK 1 (Rho kinase 1) was less than 3 nM throughout.
For `Cc1c[nH]c2nccc(Oc3ccc(C[C@H](N)C(=O)NC4CCCN(C)C4)cc3F)c12` (single isomer, unassigned) [Example 17], the Ki on ROCK 2 (Rho kinase 2) and on ROCK 1 (Rho kinase 1) was 3 to 30 nM each time.
Consider `Cc1c[nH]c2nccc(Oc3ccc(C[C@H](N)C(=O)NC4CCCN(C)C4)cc3F)c12` (single isomer, unassigned) [Example 18], for which the inhibition constant Ki on ROCK 2 (Rho kinase 2) and at ROCK 1 (Rho kinase 1) was 3 to 30 nM in each case.
As to `Cc1c[nH]c2nccc(Oc3ccc(C[C@H](N)C(=O)NC4CCN(C5CCC5)CC4)cc3F)c12` [Example 1, (S)-2-Amino-N-(1-cyclobutylpiperidin-4-yl)-3-(3-fluoro-4-((3-methyl-1H-pyrrolo[2,3-b]pyridin-4-yl)oxy)phenyl)propanamide], the inhibition constant Ki on ROCK 2 (Rho kinase 2) and on ROCK 1 (Rho kinase 1) was less than 3 nM in each case.
`Cc1c[nH]c2nccc(Oc3ccc(C[C@H](N)C(=O)NC4CCN(C5CCOC5)CC4)cc3F)c12` (stereo partly drawn) [Example 2, (2S)-2-Amino-3-(3-fluoro-4-((3-methyl-1H-pyrrolo[2,3-b]pyridin-4-yl)oxy)phenyl)-N-(1-(tetrahydrofuran-3-yl)piperidin-4-yl)propanamide]: the Ki at ROCK 2 (Rho kinase 2) and on ROCK 1 (Rho kinase 1) was less than 3 nM throughout.
Regarding `Cc1c[nH]c2nccc(Oc3ccc(C[C@H](N)C(=O)NC4CCN(C5COC5)CC4)cc3F)c12` [Example 3, (S)-2-Amino-3-(3-fluoro-4-((3-methyl-1H-pyrrolo[2,3-b]pyridin-4-yl)oxy)phenyl)-N-(1-(oxetan-3-yl)piperidin-4-yl)propanamide], the Ki at ROCK 2 (Rho kinase 2) and on ROCK 1 (Rho kinase 1) was less than 3 nM in each case.
For the compound `Cc1c[nH]c2nccc(Oc3ccc(C[C@H](N)C(=O)NC4(C)CCN(C)CC4)cc3F)c12` [Example 4, (S)-2-Amino-N-(1,4-dimethylpiperidin-4-yl)-3-(3-fluoro-4-((3-methyl-1H-pyrrolo[2,3-b]pyridin-4-yl)oxy)phenyl)propanamide], the Ki on ROCK 2 (Rho kinase 2) and at ROCK 1 (Rho kinase 1) was less than 3 nM in each case.
`Cc1c[nH]c2nccc(Oc3ccc(C[C@H](N)C(=O)NC4CCN(C5CC5)CC4)cc3F)c12` [Example 5, (S)-2-Amino-N-(1-cyclopropylpiperidin-4-yl)-3-(3-fluoro-4-((3-methyl-1H-pyrrolo[2,3-b]pyridin-4-yl)oxy)phenyl)propanamide]: the Ki on ROCK 2 (Rho kinase 2) and at ROCK 1 (Rho kinase 1) was less than 3 nM each time.
In the case of `Cc1c[nH]c2nccc(Oc3ccc(C[C@H](N)C(=O)NC4CCN(CC(C)C)CC4)cc3F)c12` [Example 6, (S)-2-Amino-3-(3-fluoro-4-((3-methyl-1H-pyrrolo[2,3-b]pyridin-4-yl)oxy)phenyl)-N-(1-isobutylpiperidin-4-yl)propanamide], the Ki on ROCK 2 (Rho kinase 2) and at ROCK 1 (Rho kinase 1) was less than 3 nM each time.
For the compound `CCN1CCC(NC(=O)[C@@H](N)Cc2ccc(Oc3ccnc4[nH]cc(C)c34)c(F)c2)CC1` [Example 7, (S)-2-Amino-N-(1-ethylpiperidin-4-yl)-3-(3-fluoro-4-((3-methyl-1H-pyrrolo[2,3-b]pyridin-4-yl)oxy)phenyl)propanamide], the Ki at ROCK 2 (Rho kinase 2) and at ROCK 1 (Rho kinase 1) was less than 3 nM each time.
As to `Cc1c[nH]c2nccc(Oc3ccc(C[C@H](N)C(=O)N4CCC(O)(CO)CC4)cc3F)c12` [Example 9, (S)-2-Amino-3-(3-fluoro-4-((3-methyl-1H-pyrrolo[2,3-b]pyridin-4-yl)oxy)phenyl)-1-(4-hydroxy-4-(hydroxymethyl)piperidin-1-yl)propan-1-one], the inhibitory constant (Ki) on ROCK 2 (Rho kinase 2) and at ROCK 1 (Rho kinase 1) was less than 3 nM throughout.
With `Cc1c[nH]c2nccc(Oc3ccc(C[C@H](N)C(=O)N[C@@H]4CCN(C)C4)cc3F)c12` [Example 10, (S)-2-Amino-3-(3-fluoro-4-((3-methyl-1H-pyrrolo[2,3-b]pyridin-4-yl)oxy)phenyl)-N-((R)-1-methylpyrrolidin-3-yl)propanamide], the Ki at ROCK 2 (Rho kinase 2) and at ROCK 1 (Rho kinase 1) was less than 3 nM each time.
As for `Cc1c[nH]c2nccc(Oc3ccc(C[C@H](N)C(=O)N4CCN(C)CC45CC5)cc3F)c12` [Example 11, (S)-2-Amino-3-(3-fluoro-4-((3-methyl-1H-pyrrolo[2,3-b]pyridin-4-yl)oxy)phenyl)-1-(7-methyl-4,7-diazaspiro[2.5]octan-4-yl)propan-1-one], the inhibition constant Ki (commonly a measure of affinity in units of concentration, obtained from inhibition or displacement) on ROCK 2 (Rho kinase 2) was less than 3 nM; at ROCK 1 (Rho kinase 1), 3 to 30 nM.
On to `Cc1c[nH]c2nccc(Oc3ccc(C[C@H](N)C(=O)N4C[C@@H]5CN(C6CC6)C[C@@H]5C4)cc3F)c12` [Example 12, (S)-2-Amino-1-((3aR,6aS)-5-cyclopropylhexahydropyrrolo[3,4-c]pyrrol-2(1H)-yl)-3-(3-fluoro-4-((3-methyl-1H-pyrrolo[2,3-b]pyridin-4-yl)oxy)phenyl)propan-1-one], for which the Ki on ROCK 2 (Rho kinase 2) and at ROCK 1 (Rho kinase 1) was less than 3 nM throughout.
With `Cc1c[nH]c2nccc(Oc3ccc(C[C@H](N)C(=O)N4C[C@@H]5C[C@H]4CN5C4CC4)cc3F)c12` [Example 13, (S)-2-Amino-1-((1S,4S)-5-cyclopropyl-2,5-diazabicyclo[2.2.1]heptan-2-yl)-3-(3-fluoro-4-((3-methyl-1H-pyrrolo[2,3-b]pyridin-4-yl)oxy)phenyl)propan-1-one], the Ki at ROCK 2 (Rho kinase 2) and on ROCK 1 (Rho kinase 1) was less than 3 nM each time.
Turning to `COCCN1CCC(NC(=O)[C@@H](N)Cc2ccc(Oc3ccnc4[nH]cc(C)c34)c(F)c2)CC1` [Example 14, (S)-2-Amino-3-(3-fluoro-4-((3-methyl-1H-pyrrolo[2,3-b]pyridin-4-yl)oxy)phenyl)-N-(1-(2-methoxyethyl)piperidin-4-yl)propanamide], the inhibition constant Ki at ROCK 2 (Rho kinase 2) and on ROCK 1 (Rho kinase 1) was less than 3 nM throughout.
Turning to `Cc1c[nH]c2nccc(Oc3ccc(C[C@H](N)C(=O)NC4CCN(CCCF)CC4)cc3F)c12` [Example 15, (S)-2-Amino-3-(3-fluoro-4-((3-methyl-1H-pyrrolo[2,3-b]pyridin-4-yl)oxy)phenyl)-N-(1-(3-fluoropropyl)piperidin-4-yl)propanamide], the Ki on ROCK 2 (Rho kinase 2) and on ROCK 1 (Rho kinase 1) was less than 3 nM throughout.
For `Cc1c[nH]c2nccc(Oc3ccc(C[C@H](N)C(=O)NC4CCN(CC5CC5)CC4)cc3F)c12` [Example 16, (S)-2-Amino-N-(1-(cyclopropylmethyl)piperidin-4-yl)-3-(3-fluoro-4-((3-methyl-1H-pyrrolo[2,3-b]pyridin-4-yl)oxy)phenyl)propanamide], the Ki at ROCK 2 (Rho kinase 2) and at ROCK 1 (Rho kinase 1) was less than 3 nM each time.
With `Cc1c[nH]c2nccc(Oc3ccc(C[C@H](N)C(=O)N4CCC(NC5CC5)CC4)cc3F)c12` [Example 19, (S)-2-Amino-1-(4-(cyclopropylamino)piperidin-1-yl)-3-(3-fluoro-4-((3-methyl-1H-pyrrolo[2,3-b]pyridin-4-yl)oxy)phenyl)propan-1-one], the inhibition constant (Ki) at ROCK 2 (Rho kinase 2) and on ROCK 1 (Rho kinase 1) was less than 3 nM each time.
`Cc1c[nH]c2nccc(Oc3ccc(C[C@H](N)C(=O)NC4(CO)CCN(C5CC5)CC4)cc3F)c12` [Example 20, (S)-2-Amino-N-(1-cyclopropyl-4-(hydroxymethyl)piperidin-4-yl)-3-(3-fluoro-4-((3-methyl-1H-pyrrolo[2,3-b]pyridin-4-yl)oxy)phenyl)propanamide]: the inhibition constant (Ki) on ROCK 2 (Rho kinase 2) and on ROCK 1 (Rho kinase 1) was less than 3 nM throughout.
For `Cc1c[nH]c2nccc(Oc3ccc(C[C@H](N)C(=O)NC4(C(N)=O)CCN(C5CC5)CC4)cc3F)c12` [Example 21, (S)-4-(2-Amino-3-(3-fluoro-4-((3-methyl-1H-pyrrolo[2,3-b]pyridin-4-yl)oxy)phenyl)propanamido)-1-cyclopropylpiperidine-4-carboxamide], the inhibition constant Ki at ROCK 2 (Rho kinase 2) and at ROCK 1 (Rho kinase 1) was less than 3 nM throughout.
On to `Cc1c[nH]c2nccc(Oc3ccc(C[C@H](N)C(=O)N4CCc5ccncc5C4)cc3F)c12` [Example 22, (S)-2-Amino-1-(3,4-dihydro-2,7-naphthyridin-2(1H)-yl)-3-(3-fluoro-4-((3-methyl-1H-pyrrolo[2,3-b]pyridin-4-yl)oxy)phenyl)propan-1-one], for which the inhibition constant Ki on ROCK 2 (Rho kinase 2) and at ROCK 1 (Rho kinase 1) was less than 3 nM throughout.
Consider `Cc1c[nH]c2nccc(Oc3ccc(C[C@H](N)C(=O)N4CCc5cncnc5C4)cc3F)c12` [Example 23, (S)-2-Amino-1-(5,8-dihydropyrido[3,4-d]pyrimidin-7(6H)-yl)-3-(3-fluoro-4-((3-methyl-1H-pyrrolo[2,3-b]pyridin-4-yl)oxy)phenyl)propan-1-one], for which the Ki at ROCK 2 (Rho kinase 2) and on ROCK 1 (Rho kinase 1) was less than 3 nM in each case.
As for `Cc1c[nH]c2nccc(Oc3ccc(C[C@H](N)C(=O)N4CCc5ncsc5C4)cc3F)c12` [Example 24, (S)-2-Amino-1-(6,7-dihydrothiazolo[5,4-c]pyridin-5(4H)-yl)-3-(3-fluoro-4-((3-methyl-1H-pyrrolo[2,3-b]pyridin-4-yl)oxy)phenyl)propan-1-one], the inhibition constant Ki on ROCK 2 (Rho kinase 2) and on ROCK 1 (Rho kinase 1) was less than 3 nM throughout.

Values taken from US20210284639A1, “TYROSINE AMIDE DERIVATIVES AS RHO- KINASE INHIBITORS” (CHIESI FARMACEUTICI S.p.A., priority 2018, published 2021).
